In the supplement of paper PMC10307832:

Legend:
Assay in all cases: relative viability (nuclei count vs DMSO), 5 days (fraction); higher = more cells survive
[1] = compound: Cc1ccc2nc(NCCN)c3ncc(C)n3c2c1 + C[C@]1(O)C[C@@H](c2nc(-c3ccc4ccc(-c5ccccc5)nc4c3)c3c(N)nccn32)C1 [Linsitinib] (partner 1 µM)
Summary of the method: (§1)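 The day after seeding in 1536-well plates, lung cancer cell lines were treated by pin tool with a single drug, or with a fixed anchor-drug dose together with five library-drug doses (not always all listed) in √10 steps. After 5 days, a combined fix-and-stain solution (final 0.05% Triton X-100, 1% formaldehyde, 1 ug/ml Hoechst) was added. Nuclei counted on 4× images gave relative viability as treated counts over vehicle counts, reported as the median of duplicate plates.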

[2] = compound: Cc1ccc2nc(NCCN)c3ncc(C)n3c2c1 + Cc1nc(Nc2ncc(C(=O)Nc3c(C)cccc3Cl)s2)cc(N2CCN(CCO)CC2)n1 [Dasatinib] (partner 0.075 µM)
Summary of the method: as §1

[3] = compound: Cc1ccc2nc(NCCN)c3ncc(C)n3c2c1 + Nc1nc2[nH]cc(CCc3ccc(C(=O)N[C@@H](CCC(=O)O)C(=O)O)cc3)c2c(=O)[nH]1 [Pemetrexed] (partner 0.2 µM)
Summary of the method: as §1

Salubrinal + Lapatinib = compound: O=C(/C=C/c1ccccc1)NC(NC(=S)Nc1cccc2cccnc12)C(Cl)(Cl)Cl [Salubrinal] + CS(=O)(=O)CCNCc1ccc(-c2ccc3ncnc(Nc4ccc(OCc5cccc(F)c5)c(Cl)c4)c3c2)o1 [Lapatinib] (partner 2 µM)
Summary of the method: as §1

Row | Cell Line | relative viability ([1]; first compound 0.04 µM) | relative viability ([1]; first compound 0.1265 µM) | relative viability ([1]; first compound 0.4 µM) | relative viability ([1]; first compound 1.265 µM) | relative viability ([1]; first compound 4 µM) | relative viability ([2]; first compound 0.04 µM) | relative viability ([2]; first compound 0.1265 µM) | relative viability ([2]; first compound 0.4 µM) | relative viability ([2]; first compound 1.265 µM) | relative viability ([2]; first compound 4 µM) | relative viability ([3]; first compound 0.04 µM) | relative viability ([3]; first compound 0.1265 µM) | relative viability ([3]; first compound 0.4 µM) | relative viability ([3]; first compound 1.265 µM) | relative viability ([3]; first compound 4 µM) | relative viability (Salubrinal + Lapatinib; first compound 0.08 µM) | relative viability (Salubrinal + Lapatinib; first compound 0.253 µM) | relative viability (Salubrinal + Lapatinib; first compound 0.8 µM) | relative viability (Salubrinal + Lapatinib; first compound 2.53 µM) | relative viability (Salubrinal + Lapatinib; first compound 8 µM)
1 | HCC-366 | 0.622 | 0.612 | 0.642 | 0.78 | 0.49 | 0.561 | 0.685 | 0.672 | 0.579 | 0.629 | 0.157 | 0.202 | 0.146 | 0.126 | 0.165 | 1.23 | 0.796 | 1.12 | 1.01 | 1.08
2 | HCC-827 | 0.932 | 0.936 | 0.91 | 0.946 | 0.938 | 0.33 | 0.239 | 0.291 | 0.266 | 0.227 | 0.261 | 0.242 | 0.273 | 0.24 | 0.266 | 0.191 | 0.196 | 0.171 | 0.235 | 0.165
3 | HOP-62 | 1.11 | 0.912 | 1.11 | 0.922 | 0.89 | 0.772 | 0.626 | 0.644 | 0.634 | 0.649 | 0.298 | 0.303 | 0.348 | 0.352 | 0.339 | 1.06 | 0.927 | 1.01 | 1.16 | 0.968
4 | IA-LM | 0.825 | 0.559 | 0.542 | 0.658 | 0.495 | – | – | – | – | – | – | – | – | – | – | 0.742 | 0.536 | 0.916 | 0.856 | 0.593
5 | LC-2-ad | 0.851 | 0.871 | 0.891 | 0.864 | 0.806 | 0.701 | 0.582 | 0.497 | 0.592 | 0.324 | 0.303 | 0.276 | 0.268 | 0.275 | 0.291 | 1.07 | 0.608 | 1.1 | 0.971 | 0.868
6 | LCLC-97TM1 | 0.204 | 0.166 | 0.185 | 0.19 | 0.201 | 0.941 | 0.816 | 0.85 | 0.911 | 0.732 | 0.171 | 0.178 | 0.211 | 0.175 | 0.145 | 1.03 | 0.799 | 0.842 | – | 0.857
7 | LCLC-103H | 1.06 | 1.06 | 1.06 | 1.14 | 1.16 | 0.584 | 0.495 | 0.421 | 0.562 | 0.442 | 0.503 | 0.51 | 0.5 | 0.467 | 0.494 | – | – | – | – | –
8 | LK-2 | 0.561 | 0.439 | 0.531 | 0.194 | 0.37 | 0.251 | 0.223 | 0.27 | 0.229 | 0.268 | 0.252 | 0.297 | – | – | 0.191 | 1.07 | 0.977 | 1.16 | 0.994 | 0.85
9 | LOU-NH91 | 0.964 | 0.865 | 0.977 | 0.942 | 0.959 | 0.562 | 0.547 | 0.531 | 0.539 | 0.559 | 0.411 | 0.344 | 0.361 | 0.465 | 0.495 | 0.71 | 0.776 | 0.776 | 0.778 | 0.752
10 | LU99A | 0.568 | 0.524 | 0.526 | 0.561 | 0.522 | 0.58 | 0.605 | 0.622 | 0.54 | 0.544 | 0.165 | 0.209 | 0.208 | 0.188 | 0.209 | 1.17 | 1.15 | 1.13 | 0.945 | 0.594
11 | LXF-289 | 0.981 | 0.949 | 0.967 | 0.975 | 1.01 | 0.262 | 0.231 | 0.247 | 0.245 | 0.275 | 0.905 | 0.876 | 0.87 | 0.865 | 0.933 | 0.984 | 0.778 | 0.913 | 0.931 | 0.804
12 | NCI-H441 | 0.752 | 0.509 | 0.714 | 0.563 | 0.504 | 0.556 | 0.552 | 0.551 | 0.673 | 0.445 | 0.301 | 0.288 | 0.269 | 0.268 | 0.261 | – | – | – | – | –
13 | NCI-H522 | – | – | – | – | – | 0.882 | 0.966 | 0.827 | 0.806 | 0.842 | 1.02 | 1.24 | 0.766 | 1.28 | 0.95 | – | – | – | – | –
14 | NCI-H727 | 0.322 | 0.352 | 0.285 | 0.308 | 0.338 | 0.4 | – | 0.338 | 0.321 | 0.365 | – | – | – | – | – | 1.01 | 0.848 | 0.899 | 0.812 | 0.903
15 | NCI-H1299 | 1.01 | 0.925 | 0.962 | 0.979 | 0.924 | – | – | – | – | – | – | – | – | – | – | 0.96 | 0.924 | 0.98 | 0.918 | 0.883
16 | NCI-H1648 | – | – | – | – | – | – | – | – | – | – | 0.696 | 0.85 | 0.723 | 0.627 | 0.7 | – | – | – | – | –
17 | NCI-H1650 | – | – | – | – | – | 0.33 | 0.312 | 0.273 | 0.282 | 0.226 | 0.352 | 0.386 | 0.349 | 0.376 | 0.332 | 0.805 | 0.817 | 0.9 | 0.731 | 0.953
18 | NCI-H1703 | 1.43 | 0.74 | 0.72 | 1.23 | 0.715 | – | – | – | – | – | – | – | – | – | – | 1.24 | – | 1.24 | 0.917 | 0.892
19 | NCI-H2170 | – | – | – | – | – | 0.565 | 0.646 | 0.58 | 0.58 | 0.564 | 0.258 | 0.305 | 0.26 | 0.257 | 0.262 | 0.275 | 0.289 | 0.248 | 0.271 | 0.263
20 | NCI-H2342 | – | – | – | – | – | 0.363 | 0.363 | 0.328 | 0.284 | 0.313 | 0.871 | 0.817 | 0.751 | 0.827 | 0.713 | – | – | – | – | –
21 | SW 900 | – | – | – | – | – | 0.419 | 0.759 | – | 0.459 | 0.408 | – | 0.49 | 0.444 | 0.464 | 0.489 | – | – | – | – | –
